Results published in patent publication US3930838A, “S-benzyl-N,N-disec-butylthiocarbamate and its use as a rice field herbicide and a rice growth stimulant” (priority 1970, dated 1976).

Experiments:
rice [1] = experiment: Hothouse test on rice in flooded boxes, 27 days (Example 9a); format: in vivo, rice cv. RIBE
Excerpt: (§1) A test was arranged in a hothouse on a set of boxes having a 1,000 cm^2 internal surface. 18 Kg. of sieved rice field earth were put into each box. After leveling, the earth surfaces of each of a set of six boxes were uniformly sprayed with hydroacetone solutions containing, respectively, 0, 0.5, 0.75, 1, 1.25, and 1.5% of M3432. 20 Cc. of solution was sprayed into each box, corresponding to 0, 10, 15, 20, 25, and 30 kg./ha., respectively. Each box was flooded with a 10 cm. water layer measured from the earth surface. The sowing was carried out immediately afterwards with a pre-germinated (cv) RIBE rice seed, employing a quantity of 40 seeds per box.
During the test, the hothouse temperature ranged from +10°to +28°C. 27 Days after the treatment, all the rice plants were recovered from each box and subjected to biometric controls.

[2] = Acute oral toxicity, rats; details: rat, in vivo, per os
rice [3] = experiment: Hothouse test on rice in flooded culture, 66 days (Example 9b); format: in vivo, rice cv. RIBE
Excerpt: as §1
A second test was carried out in a hothouse, employing the identical method and under the identical conditions as in Example 9a.

rice [4] = experiment: Rice seed surface treatment, pots, test No. 1 (Example 17); format: in vivo, rice cv. RIBE; details: 41 days
Procedure: A set of glass pots was prepared as described in Example 7. Immediately after such preparation the pots were filled with water to a level of 7 cm. above the ground surface. Cv. RIBE rice seeds, which were previously allowed to swell in water, were divided into four groups. Each group was treated, by application with a micro syringe with a quantity of M3432 composition; containing 70% active product, corresponding to the following doses of a.p. per ha.: 0, 2.5, 5, and 10 kg. 15 seeds coated with the compound were placed into each pot and subsequently covered with a thin layer of earth. After 41 days, the following results were obtained.

rice [5] = experiment: Post emergence outdoor plot test No. 3, rice (Example 16); format: in vivo; details: 45 days, emulsifiable oil
Procedure: Some plots, 12 m^2 each, delimited by artificial levees, were prepared outdoors. AFter soil working and grading, the plots were sowed with Echinocloa spp. on May 18, 1970 and then flooded to a height of 10 cm. with water on May 20, 1970. The same day, rice was sowed in quantities corresponding to 150 kg. of seed per ha. Both rice and Echinocloa emerged from the soil 5 days after the flooding.
When the barnyard grass reached an average height of 12-14 cm., the treatment was effected by uniformly spraying the flooded water surface.
Products being tested: M3432 and molinate, in emulsifiable oil base.
Doses: 0, 4, and 6 kg./ha.
The first effects on Echinocloa spp. were noticed for both products 7 days after treatment, 45 Days after treatment the following was observed: […]

## CCC(C)N(C(=O)SCc1ccccc1)C(C)CC (stereo not shown) [M3432, S-benzyl-N,N-disec.butylthiocarbamate]
Rice [1]; 10 kg./ha.
  Main root: 4.82 cm.
  Main root, % of control: 150 % of control
  Secondary roots: 2.82 No.
  Secondary roots, % of control: 127 % of control
  Shoot: 11.70 cm.
  Shoot, % of control: 198 % of control
  Sprouted plants: 52.5%
  Sprouted plants, % of control: 131 % of control
Rice [1]; 15 kg./ha.
  Main root: 4.06 cm.
  Main root, % of control: 131 % of control
  Secondary roots: 2.95 No.
  Secondary roots, % of control: 133 % of control
  Shoot: 11.99 cm.
  Shoot, % of control: 203 % of control
  Sprouted plants: 57.5%
  Sprouted plants, % of control: 144 % of control
Rice [1]; 20 kg./ha.
  Main root: 8.29 cm.
  Main root, % of control: 267 % of control
  Secondary roots: 4.42 No.
  Secondary roots, % of control: 199 % of control
  Shoot: 12.15 cm.
  Shoot, % of control: 205 % of control
  Sprouted plants: 77.5%
  Sprouted plants, % of control: 193 % of control
Rice [1]; 25 kg./ha.
  Main root: 6.77 cm.
  Main root, % of control: 218 % of control
  Secondary roots: 4.66 No.
  Secondary roots, % of control: 210 % of control
  Shoot: 16.77 cm.
  Shoot, % of control: 283 % of control
  Sprouted plants: 85.0%
  Sprouted plants, % of control: 212 % of control
Rice [1]; 30 kg./ha.
  Main root: 8.84 cm.
  Main root, % of control: 285 % of control
  Secondary roots: 4.90 No.
  Secondary roots, % of control: 220 % of control
  Shoot: 14.59 cm.
  Shoot, % of control: 246 % of control
  Sprouted plants: 87.5%
  Sprouted plants, % of control: 219 % of control
[2]
  LD50: 10200 mg/kg
Rice [3]; 10 kg./ha.
  Main root: 12.64 cm.
  Roots, weight on dry basis: 5.550 g. per 100 plant
  Secondary roots: 12.20 No.
  Shoot: 16.74 cm.
  Shoot, weight on dry basis: 8.000 g. per 100 plant
  Sprouted plants: 45.0%
Rice [3]; 15 kg./ha.
  Main root: 13.54 cm.
  Roots, weight on dry basis: 6.800 g. per 100 plant
  Secondary roots: 13.30 No.
  Shoot: 18.16 cm.
  Shoot, weight on dry basis: 11.800 g. per 100 plant
  Sprouted plants: 45.0%
Rice [3]; 20 kg./ha.
  Main root: 17.16 cm.
  Roots, weight on dry basis: 10.480 g. per 100 plant
  Secondary roots: 21.00 No.
  Shoot: 26.00 cm.
  Shoot, weight on dry basis: 18.050 g. per 100 plant
  Sprouted plants: 60.0%
Rice [3]; 25 kg./ha.
  Main root: 10.26 cm.
  Roots, weight on dry basis: 4.250 g. per 100 plant
  Secondary roots: 10.05 No.
  Shoot: 15.00 cm.
  Shoot, weight on dry basis: 6.875 g. per 100 plant
  Sprouted plants: 40.0%
Rice [3]; 30 kg./ha.
  Main root: 8.21 cm.
  Roots, weight on dry basis: 2.800 g. per 100 plant
  Secondary roots: 8.00 No.
  Shoot: 14.50 cm.
  Shoot, weight on dry basis: 5.050 g. per 100 plant
  Sprouted plants: 40.0%
Rice [4]; 2.5 kg./ha.
  Main root: 8.93 cm.
  Secondary roots: 3.90 no.
  Shoot: 17.16 cm.
  Stand: 68.80%
Rice [4]; 5 kg./ha.
  Main root: 8.48 cm.
  Secondary roots: 4.02 no.
  Shoot: 16.83 cm.
  Stand: 62.20%
Rice [4]; 10 kg./ha.
  Main root: 10.07 cm.
  Secondary roots: 4.23 no.
  Shoot: 16.92 cm.
  Stand: 62.20%

## CCSC(=O)N1CCCCCC1 [Molinate, ethyl-1-hexamethylene-imino-carbothiolate, reference compound]
Rice [5]; 4 kg./ha.
  Effect on rice: Stronger than the control
Rice [5]; 6 kg./ha.
  Effect on rice: Stronger than the control
